Values quoted from earlier work, collected in PMC10801393 (Clinical and Translational Science, 2024).
Like-named read-outs stand apart in the source and are kept apart here.

Legend:
[1] = tamoxifen 20 mg/day
[2] = not given; remark: listed apart in the source

## CC/C(=C(\c1ccccc1)c1ccc(OCCN(C)C)cc1)c1ccccc1 [tamoxifen, Tamoxifen]
[1]; postmenopausal patients
  steady‐state plasma concentration (C ss): 201.23 ng/mL
[1]; premenopausal patients
  steady‐state plasma concentration (C ss): 116.95 ng/mL

## Cc1ncc2n1-c1ccc(Cl)cc1C(c1ccccc1F)=NC2 [midazolam]
Postmenopausal group
  oral clearance geometric mean: 24.10 mL/min/kg
Premenopausal group
  oral clearance geometric mean: 30.09 mL/min/kg

## CC(C)(C(=O)O)c1ccc(C(O)CCCN2CCC(C(O)(c3ccccc3)c3ccccc3)CC2)cc1 (centres unmarked) [fexofenadine, Fexofenadine]
[2]
  BDDCS class: class 3
